ChEMBL document CHEMBL5465560, “Selectivity Literature for EUbOPEN Chemogenomic Library” (2024)

Experiments:
[1] = target: Tyrosine-protein kinase Fyn (Homo sapiens) (UniProt P06241); experiment: Selectivity interaction (Ambit KINOMEscan and KiNATiv profiling in Jurkat cells) EUB0000090b FYN; type: cell-based; conditions: at 1 µM
[2] = target: Serine/threonine-protein kinase PAK 6 (Homo sapiens) (UniProt Q9NQU5); experiment: Selectivity interaction (Ambit KINOMEscan and KiNATiv profiling in Jurkat cells) EUB0000090b PAK6; type: cell-based; conditions: at 1 µM
[3] = target: Calcium/calmodulin-dependent protein kinase type II subunit alpha (Homo sapiens, UniProt Q9UQM7); experiment: Selectivity interaction (KinomeScan (DiscoverX)) EUB0001079a CAMK2A; conditions: at 1 µM
Calcium/calmodulin-dependent protein kinase type II subunit alpha, sequence (Q9UQM7 whole entry, the tested form may be a part): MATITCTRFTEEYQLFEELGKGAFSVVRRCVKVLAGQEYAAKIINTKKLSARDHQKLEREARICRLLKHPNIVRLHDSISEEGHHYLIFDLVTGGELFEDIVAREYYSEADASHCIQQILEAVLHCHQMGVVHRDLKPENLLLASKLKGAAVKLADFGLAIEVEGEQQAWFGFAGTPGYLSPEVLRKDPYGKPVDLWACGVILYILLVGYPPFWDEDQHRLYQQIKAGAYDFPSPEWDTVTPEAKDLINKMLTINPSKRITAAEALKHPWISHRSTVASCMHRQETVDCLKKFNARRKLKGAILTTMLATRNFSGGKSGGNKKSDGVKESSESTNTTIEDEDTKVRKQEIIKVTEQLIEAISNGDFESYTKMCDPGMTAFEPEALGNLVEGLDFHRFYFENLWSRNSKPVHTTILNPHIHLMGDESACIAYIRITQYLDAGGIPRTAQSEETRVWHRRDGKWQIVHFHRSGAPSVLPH

[4] = target: LIM domain kinase 2 (Homo sapiens) (UniProt P53671); experiment: Selectivity interaction (KinomeScan (DiscoverX)) EUB0001079a LIMK2; conditions: at 1 µM
LIM domain kinase 2 (Homo sapiens), sequence (P53671 whole entry, looked up, the tested form may be a part): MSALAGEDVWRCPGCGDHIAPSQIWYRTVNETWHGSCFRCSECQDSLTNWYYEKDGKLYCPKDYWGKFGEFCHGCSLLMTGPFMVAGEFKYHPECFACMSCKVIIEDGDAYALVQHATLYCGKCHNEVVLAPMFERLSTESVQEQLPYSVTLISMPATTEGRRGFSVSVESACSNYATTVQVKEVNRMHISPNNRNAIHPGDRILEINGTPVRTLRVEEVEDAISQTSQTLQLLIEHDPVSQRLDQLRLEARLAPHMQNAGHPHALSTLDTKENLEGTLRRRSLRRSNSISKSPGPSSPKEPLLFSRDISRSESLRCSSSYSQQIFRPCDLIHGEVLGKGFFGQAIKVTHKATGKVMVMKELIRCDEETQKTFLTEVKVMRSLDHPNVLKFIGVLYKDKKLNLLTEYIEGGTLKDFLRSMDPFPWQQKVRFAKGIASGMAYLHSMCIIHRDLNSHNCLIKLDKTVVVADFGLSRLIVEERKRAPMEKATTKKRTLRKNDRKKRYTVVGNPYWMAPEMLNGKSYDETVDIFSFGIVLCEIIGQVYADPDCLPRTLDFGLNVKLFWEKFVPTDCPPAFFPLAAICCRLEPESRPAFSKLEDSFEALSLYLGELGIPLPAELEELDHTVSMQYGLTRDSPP

[5] = target: Serine/threonine-protein kinase PAK 2 (Homo sapiens) (UniProt Q13177); experiment: Selectivity interaction (KinomeScan (DiscoverX)) EUB0001079a PAK2; conditions: at 1 µM
Serine/threonine-protein kinase PAK 2 (Homo sapiens), sequence (Q13177 whole entry): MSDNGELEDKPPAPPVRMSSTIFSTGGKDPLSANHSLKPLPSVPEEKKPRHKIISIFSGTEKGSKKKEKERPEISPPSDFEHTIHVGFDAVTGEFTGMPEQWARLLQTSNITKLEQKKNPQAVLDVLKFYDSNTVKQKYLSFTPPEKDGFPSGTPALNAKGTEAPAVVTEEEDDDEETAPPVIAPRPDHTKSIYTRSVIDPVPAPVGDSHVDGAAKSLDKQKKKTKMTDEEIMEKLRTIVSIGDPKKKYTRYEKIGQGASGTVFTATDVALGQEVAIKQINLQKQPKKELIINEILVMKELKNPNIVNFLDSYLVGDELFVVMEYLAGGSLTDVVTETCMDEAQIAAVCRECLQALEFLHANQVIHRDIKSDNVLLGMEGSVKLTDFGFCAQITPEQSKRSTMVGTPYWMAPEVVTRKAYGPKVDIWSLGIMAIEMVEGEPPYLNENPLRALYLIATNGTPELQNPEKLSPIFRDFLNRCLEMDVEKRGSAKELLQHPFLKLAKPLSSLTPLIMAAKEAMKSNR

Activated CDC42 kinase 1 = Activated CDC42 kinase 1 (Homo sapiens, UniProt Q07912); experiment: Selectivity interaction (KinomeScan (DiscoverX)) EUB0000618a TNK2; conditions: at 10 µM
[6] = target: Mitogen-activated protein kinase kinase kinase 4 (Homo sapiens) (UniProt Q9Y6R4); experiment: Selectivity interaction (KinomeScan (DiscoverX)) EUB0001619a MAP3K4; conditions: at 1 µM
[7] = target: T1, TGF-beta receptor type-1 (Homo sapiens) (UniProt P36897); experiment: Selectivity interaction (KinomeScan (DiscoverX)) EUB0000045b TGFBR1
T1 sequence (whole entry): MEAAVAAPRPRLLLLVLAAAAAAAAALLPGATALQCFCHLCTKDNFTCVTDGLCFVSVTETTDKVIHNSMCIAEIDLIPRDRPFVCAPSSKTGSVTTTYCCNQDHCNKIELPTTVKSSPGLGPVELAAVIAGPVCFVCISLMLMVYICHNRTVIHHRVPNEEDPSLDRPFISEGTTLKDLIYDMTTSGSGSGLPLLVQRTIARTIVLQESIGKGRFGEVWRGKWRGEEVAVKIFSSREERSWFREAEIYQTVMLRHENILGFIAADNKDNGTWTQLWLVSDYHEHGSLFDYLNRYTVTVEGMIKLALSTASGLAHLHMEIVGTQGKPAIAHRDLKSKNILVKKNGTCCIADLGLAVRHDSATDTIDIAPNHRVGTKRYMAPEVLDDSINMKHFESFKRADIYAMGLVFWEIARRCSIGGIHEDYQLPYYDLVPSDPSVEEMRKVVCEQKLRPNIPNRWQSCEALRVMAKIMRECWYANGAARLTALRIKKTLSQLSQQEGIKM

Aurora kinase B = Aurora kinase B (Homo sapiens, UniProt Q96GD4); experiment: Selectivity interaction (KinomeScan (DiscoverX)) EUB0000595a AURKB; conditions: at 10 µM
Aurora kinase B, sequence (Q96GD4 whole entry): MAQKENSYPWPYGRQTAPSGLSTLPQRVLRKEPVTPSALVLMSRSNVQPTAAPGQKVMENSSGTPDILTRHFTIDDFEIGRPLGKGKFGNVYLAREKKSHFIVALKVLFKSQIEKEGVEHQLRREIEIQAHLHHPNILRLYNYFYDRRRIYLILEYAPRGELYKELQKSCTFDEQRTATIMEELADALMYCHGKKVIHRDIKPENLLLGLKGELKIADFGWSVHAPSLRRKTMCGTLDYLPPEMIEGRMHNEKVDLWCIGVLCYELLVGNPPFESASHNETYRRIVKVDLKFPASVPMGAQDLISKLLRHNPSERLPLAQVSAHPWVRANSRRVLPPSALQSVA

[8] = target: Ribosomal protein S6 kinase alpha-1 (Homo sapiens, UniProt Q15418); experiment: Selectivity interaction (KinomeScan (DiscoverX)) EUB0000595a RPS6KA1; conditions: at 10 µM
Ribosomal protein S6 kinase alpha-1, sequence (Q15418 whole entry, canonical isoform): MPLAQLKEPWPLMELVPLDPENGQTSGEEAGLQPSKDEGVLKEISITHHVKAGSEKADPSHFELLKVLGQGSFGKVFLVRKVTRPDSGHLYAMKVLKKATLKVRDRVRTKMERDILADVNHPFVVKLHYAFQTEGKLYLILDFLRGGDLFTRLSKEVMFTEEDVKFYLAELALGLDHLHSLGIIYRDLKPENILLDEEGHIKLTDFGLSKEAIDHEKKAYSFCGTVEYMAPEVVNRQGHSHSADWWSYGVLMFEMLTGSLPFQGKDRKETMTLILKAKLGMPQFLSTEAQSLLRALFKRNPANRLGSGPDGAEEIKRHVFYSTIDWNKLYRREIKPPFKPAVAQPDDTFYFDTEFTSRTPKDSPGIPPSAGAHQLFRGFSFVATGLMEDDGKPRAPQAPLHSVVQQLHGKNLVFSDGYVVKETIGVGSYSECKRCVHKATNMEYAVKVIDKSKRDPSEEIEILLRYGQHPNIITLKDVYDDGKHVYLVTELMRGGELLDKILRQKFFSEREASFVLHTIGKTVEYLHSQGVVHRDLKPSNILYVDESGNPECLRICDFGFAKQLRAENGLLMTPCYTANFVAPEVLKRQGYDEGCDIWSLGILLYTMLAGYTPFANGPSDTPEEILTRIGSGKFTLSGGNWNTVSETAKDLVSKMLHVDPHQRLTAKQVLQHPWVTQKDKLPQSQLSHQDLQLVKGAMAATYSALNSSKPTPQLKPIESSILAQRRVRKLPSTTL

[9] = target: Casein kinase I isoform epsilon (Homo sapiens, UniProt P49674); conditions: at 10 µM
Casein kinase I isoform epsilon, sequence (P49674 whole entry, looked up, canonical isoform): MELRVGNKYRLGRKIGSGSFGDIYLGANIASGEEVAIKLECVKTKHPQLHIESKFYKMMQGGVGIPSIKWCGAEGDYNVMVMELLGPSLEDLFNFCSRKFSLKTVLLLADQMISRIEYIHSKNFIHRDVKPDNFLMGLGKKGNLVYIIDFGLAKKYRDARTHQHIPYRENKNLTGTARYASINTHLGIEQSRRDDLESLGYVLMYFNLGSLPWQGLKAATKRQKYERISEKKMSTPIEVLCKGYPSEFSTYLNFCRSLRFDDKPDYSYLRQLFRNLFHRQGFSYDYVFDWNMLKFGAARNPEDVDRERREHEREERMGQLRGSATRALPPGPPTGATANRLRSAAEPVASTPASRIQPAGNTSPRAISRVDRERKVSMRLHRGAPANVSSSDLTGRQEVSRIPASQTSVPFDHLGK

[10] = target: Serine/threonine-protein kinase PRP4 homolog (Homo sapiens) (UniProt Q13523); experiment: Selectivity interaction (ActivX KiNativ screen (kinase selectivity in THP-1 cell lysates)) EUB0000639a PRPF4; type: subcellular; conditions: lysate
Serine/threonine-protein kinase PRP4 homolog (Homo sapiens), sequence (Q13523 whole entry): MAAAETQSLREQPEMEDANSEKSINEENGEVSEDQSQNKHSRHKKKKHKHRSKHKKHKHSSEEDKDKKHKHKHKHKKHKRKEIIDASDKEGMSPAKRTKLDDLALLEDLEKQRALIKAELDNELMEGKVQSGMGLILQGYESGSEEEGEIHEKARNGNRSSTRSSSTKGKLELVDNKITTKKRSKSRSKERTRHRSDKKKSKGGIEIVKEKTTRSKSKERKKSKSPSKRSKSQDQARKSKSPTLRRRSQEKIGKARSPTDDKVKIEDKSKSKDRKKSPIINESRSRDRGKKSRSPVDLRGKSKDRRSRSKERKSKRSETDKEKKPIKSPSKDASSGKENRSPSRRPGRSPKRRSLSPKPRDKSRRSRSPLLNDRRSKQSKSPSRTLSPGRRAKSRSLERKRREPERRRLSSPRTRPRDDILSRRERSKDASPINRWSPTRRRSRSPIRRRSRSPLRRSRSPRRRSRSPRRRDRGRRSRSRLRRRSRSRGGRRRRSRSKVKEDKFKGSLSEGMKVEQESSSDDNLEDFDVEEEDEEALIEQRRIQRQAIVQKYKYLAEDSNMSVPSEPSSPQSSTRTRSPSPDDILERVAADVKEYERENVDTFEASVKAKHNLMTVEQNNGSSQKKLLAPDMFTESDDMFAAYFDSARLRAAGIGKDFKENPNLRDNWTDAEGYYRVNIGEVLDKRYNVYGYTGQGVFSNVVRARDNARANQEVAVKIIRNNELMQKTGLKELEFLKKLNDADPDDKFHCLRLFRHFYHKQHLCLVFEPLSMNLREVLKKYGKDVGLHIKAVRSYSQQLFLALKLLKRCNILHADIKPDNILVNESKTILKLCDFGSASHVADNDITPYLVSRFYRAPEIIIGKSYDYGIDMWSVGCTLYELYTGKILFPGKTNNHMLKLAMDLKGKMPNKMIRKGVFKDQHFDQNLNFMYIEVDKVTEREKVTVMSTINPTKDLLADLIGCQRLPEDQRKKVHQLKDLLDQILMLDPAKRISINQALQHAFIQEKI

[11] = target: T2, Serine/threonine-protein kinase Sgk3 (Homo sapiens) (UniProt Q96BR1); experiment: Selectivity interaction (Kinase panel (Invitrogen)) EUB0000639a SGK3; conditions: at 200 nM
T2 sequence (whole entry): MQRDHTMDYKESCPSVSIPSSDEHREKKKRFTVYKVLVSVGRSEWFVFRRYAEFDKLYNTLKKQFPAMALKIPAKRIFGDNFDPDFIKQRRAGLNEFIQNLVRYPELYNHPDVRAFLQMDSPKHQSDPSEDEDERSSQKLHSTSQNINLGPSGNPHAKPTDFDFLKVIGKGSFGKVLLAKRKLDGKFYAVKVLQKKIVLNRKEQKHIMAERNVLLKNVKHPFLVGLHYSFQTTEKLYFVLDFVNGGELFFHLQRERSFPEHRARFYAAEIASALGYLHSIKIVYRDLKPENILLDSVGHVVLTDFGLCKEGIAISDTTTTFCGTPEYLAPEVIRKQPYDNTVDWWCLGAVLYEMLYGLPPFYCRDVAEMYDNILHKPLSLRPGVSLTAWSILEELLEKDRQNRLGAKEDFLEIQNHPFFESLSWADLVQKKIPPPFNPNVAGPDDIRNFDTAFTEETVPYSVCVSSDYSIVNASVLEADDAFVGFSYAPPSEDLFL

MAO-A (MAOA) = MAO-A (MAOA) (Homo sapiens, UniProt P21397); experiment: Selectivity interaction (Safety Panel 44tm (Eurofins)) EUB0000162b MAOA; conditions: at 10 µM, read-out: % of control
MAO-A (MAOA), sequence (P21397 whole entry): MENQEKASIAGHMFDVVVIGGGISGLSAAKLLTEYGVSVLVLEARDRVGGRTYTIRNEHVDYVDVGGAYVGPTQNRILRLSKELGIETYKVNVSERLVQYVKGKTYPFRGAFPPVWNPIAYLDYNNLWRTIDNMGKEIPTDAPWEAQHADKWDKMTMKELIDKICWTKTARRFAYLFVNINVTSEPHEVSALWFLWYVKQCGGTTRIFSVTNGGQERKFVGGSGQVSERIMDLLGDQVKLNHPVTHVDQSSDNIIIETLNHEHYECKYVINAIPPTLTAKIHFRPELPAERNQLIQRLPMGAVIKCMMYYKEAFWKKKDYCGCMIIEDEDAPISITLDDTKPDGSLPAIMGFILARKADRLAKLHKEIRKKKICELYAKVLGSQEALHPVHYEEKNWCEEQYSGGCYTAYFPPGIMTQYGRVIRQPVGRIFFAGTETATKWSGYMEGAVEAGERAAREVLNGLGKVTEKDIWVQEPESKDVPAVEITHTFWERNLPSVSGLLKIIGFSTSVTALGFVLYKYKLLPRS

[12] = target: T3, Dual specificity tyrosine-phosphorylation-regulated kinase 2 (Homo sapiens) (UniProt Q92630); experiment: Selectivity interaction (Kinase screening (Nanosyn)) EUB0000604a DYRK2
T3 sequence (whole entry): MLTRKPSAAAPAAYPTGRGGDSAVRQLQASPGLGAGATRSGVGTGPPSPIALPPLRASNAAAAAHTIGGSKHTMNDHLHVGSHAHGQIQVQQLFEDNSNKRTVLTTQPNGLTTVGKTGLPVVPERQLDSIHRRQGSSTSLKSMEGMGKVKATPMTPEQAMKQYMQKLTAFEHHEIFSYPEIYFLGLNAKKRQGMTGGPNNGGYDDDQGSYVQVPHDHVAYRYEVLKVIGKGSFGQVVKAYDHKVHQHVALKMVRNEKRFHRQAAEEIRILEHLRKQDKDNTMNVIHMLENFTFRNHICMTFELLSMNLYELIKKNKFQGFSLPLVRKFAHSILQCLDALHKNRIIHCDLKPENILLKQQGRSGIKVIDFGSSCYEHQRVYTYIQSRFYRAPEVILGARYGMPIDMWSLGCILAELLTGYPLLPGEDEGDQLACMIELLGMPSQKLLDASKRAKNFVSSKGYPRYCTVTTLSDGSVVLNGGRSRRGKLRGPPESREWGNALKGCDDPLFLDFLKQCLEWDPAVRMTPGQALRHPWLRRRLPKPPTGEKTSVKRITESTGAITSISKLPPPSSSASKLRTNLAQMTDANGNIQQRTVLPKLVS

Question: For `CN(C)C/C=C/C(=O)Nc1ccc(C(=O)N2CCCC(Nc3ncc(Cl)c(-c4c[nH]c5ccccc45)n3)C2)cc1` (stereo not given), which % of control [1] is on record?
Answer: The % of control was 61%.

Question: And the % of control [2]?
Answer: The % of control was 87%.

Question: How did the % of control [3] turn out when `Nc1cnc(N2CCc3cc(S(=O)(=O)Nc4c(F)cc(Cl)cc4F)cc(N4CCCC4=O)c32)nc1` [TP-020n] was run?
Answer: The % of control was 92%.

Question: What about the % of control [4] of the same compound?
Answer: The % of control was 100%.

Question: What about the % of control [5] of the same compound?
Answer: The % of control was 78%.

Question: With `O[C@H]1CC[C@H](Nc2ncc3nc(Nc4c(F)cc(F)cc4F)n([C@H]4CCOC4)c3n2)CC1` as the compound, how does the % of control (Activated CDC42 kinase 1) read?
Answer: The % of control was 100%.

Question: With `N#Cc1cccc(-c2c[nH]c3ncnc(N4CCOCC4)c23)c1` as the compound, how does the % of control [6] read?
Answer: The % of control was 100%.

Question: With `C=CC(=O)Nc1cc(-n2c(=O)ccc3cnc4ccc(-c5ccc(NS(C)(=O)=O)cc5)cc4c32)ccc1C` as the compound, how does the % of control ([7]; at 1 µM) read?
Answer: The % of control was 97%.

Question: And the % of control ([7]; at 10 µM)?
Answer: The % of control was 100%.

Question: Which % of control (Aurora kinase B) does the source give for `COCC(=O)NC/C=C/c1ccc2ncnc(Nc3ccc(Oc4ccc(C)nc4)c(C)c3)c2c1` [CP-724714] here?
Answer: The % of control was 100%.

Question: What about the % of control [8] of the same compound?
Answer: The % of control was 100%.

Question: `Cc1cc([C@@H](C)Nc2ccccc2C(=O)O)c2nc(N3CCOCC3)cc(=O)n2c1` [AZD-6482] was tested. Which % of control [9] did it give?
Answer: The % of control was 98%.

Question: How did the % of inhibition ([10]; at 0.01 µM) turn out when `CC[C@@H]1[C@H](F)C(=O)N[C@@H]1COc1nccc2cc(C(N)=O)c(OC)cc12` [ZIMLOVISERTIB] was run?
Answer: Its % of inhibition is -2.3%.

Question: What about the % of inhibition ([10]; at 0.04 µM) of the same compound?
Answer: The % of inhibition was 7.1%.

Question: What about the % of inhibition ([10]; at 0.2 µM) of the same compound?
Answer: The % of inhibition was 29.8%.

Question: What about the % of inhibition ([10]; at 1 µM) of the same compound?
Answer: The % of inhibition was 73.9%.

Question: And the % of inhibition ([10]; at 5 µM)?
Answer: Its % of inhibition is 86.3%.

Question: What about the % of inhibition [11] of the same compound?
Answer: The % of inhibition was 1.19%.

Question: `CN(C)C(=O)Cn1cc(-c2ccc(-c3cncc4ccccc34)cc2)cn1` was tested. Which activity (MAO-A (MAOA)) did it give?
Answer: The activity was 30%.

Question: With `Cc1cnc(Nc2ccc(F)cc2Cl)nc1-c1c[nH]c(C(=O)N[C@H](CO)c2cccc(Cl)c2)c1` as the compound, how does the % of inhibition [12] read?
Answer: Its % of inhibition is 3%.
